Data: PMC2244712, “One-Pot, Mix-and-Read Peptide-MHC Tetramers” (PLoS ONE, 2008)
pKd: −log10 of the molar value. Residues, ends and D or L forms follow the SMILES beside them.

What was measured:
HLA-A*0201 = molecular target: T1, HLA-A*0201 (Homo sapiens, UniProt P04439, D140Y/D185E/D98H/E176V/E277Q/G131W/G231S/I119V/I121R/I166T/I218V/L300P/L318F/N151K/N90K/P208A/P217A/Q86G/Q94H/R138H/R169H/T345S); assay: biochemical; assay type: binding
T1 construct: generated from synthetic codon optimized and truncated genes without the transmembrane region; BSP (BirA biotinylation substrate peptide, biotinylated in vivo or not) (C); made in house; host or cells: E. coli BL21 (DE3), pET28a+, co-transformed with a BirA vector

[1] = molecular target: in vivo biotinylated HLA-A*0201-HAT-BSP heavy chain folded with ß2m (human); assay: ELISA
[2] = molecular target: in vivo biotinylated HLA-B*0702-BSPHAT heavy chain folded with ß2m (human); assay: ELISA
[3] = molecular target: in vivo biotinylated HLA-B*4402-HATBSP heavy chain folded with ß2m (human); assay: ELISA

EBV EBNA3b 657-666 peptide, sequence (P03203 whole entry, looked up): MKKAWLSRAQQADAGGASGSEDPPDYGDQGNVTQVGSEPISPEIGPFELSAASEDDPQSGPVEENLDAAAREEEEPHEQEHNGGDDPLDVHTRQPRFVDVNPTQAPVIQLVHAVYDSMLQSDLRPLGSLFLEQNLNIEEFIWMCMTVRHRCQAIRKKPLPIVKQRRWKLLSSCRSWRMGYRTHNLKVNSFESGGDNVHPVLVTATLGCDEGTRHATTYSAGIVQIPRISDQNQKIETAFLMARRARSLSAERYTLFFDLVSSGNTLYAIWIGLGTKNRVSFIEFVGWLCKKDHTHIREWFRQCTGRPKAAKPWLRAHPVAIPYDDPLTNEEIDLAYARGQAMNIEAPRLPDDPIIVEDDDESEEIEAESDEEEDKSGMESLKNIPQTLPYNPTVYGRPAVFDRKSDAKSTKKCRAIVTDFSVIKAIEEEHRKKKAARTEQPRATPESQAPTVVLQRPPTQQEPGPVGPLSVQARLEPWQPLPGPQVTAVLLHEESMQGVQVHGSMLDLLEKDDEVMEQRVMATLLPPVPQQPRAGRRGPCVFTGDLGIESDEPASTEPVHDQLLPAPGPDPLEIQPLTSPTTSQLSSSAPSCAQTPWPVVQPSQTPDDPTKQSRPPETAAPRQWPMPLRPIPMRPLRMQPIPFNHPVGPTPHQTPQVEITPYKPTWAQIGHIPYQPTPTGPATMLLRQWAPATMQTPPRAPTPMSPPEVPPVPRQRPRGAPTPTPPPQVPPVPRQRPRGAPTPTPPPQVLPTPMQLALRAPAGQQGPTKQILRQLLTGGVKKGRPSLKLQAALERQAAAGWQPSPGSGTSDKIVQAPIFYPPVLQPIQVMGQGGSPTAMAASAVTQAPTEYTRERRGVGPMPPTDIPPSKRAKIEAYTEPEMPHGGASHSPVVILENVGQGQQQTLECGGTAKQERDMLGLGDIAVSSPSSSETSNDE
CMV pp65 495-503 peptide, sequence (P06725 whole entry, looked up): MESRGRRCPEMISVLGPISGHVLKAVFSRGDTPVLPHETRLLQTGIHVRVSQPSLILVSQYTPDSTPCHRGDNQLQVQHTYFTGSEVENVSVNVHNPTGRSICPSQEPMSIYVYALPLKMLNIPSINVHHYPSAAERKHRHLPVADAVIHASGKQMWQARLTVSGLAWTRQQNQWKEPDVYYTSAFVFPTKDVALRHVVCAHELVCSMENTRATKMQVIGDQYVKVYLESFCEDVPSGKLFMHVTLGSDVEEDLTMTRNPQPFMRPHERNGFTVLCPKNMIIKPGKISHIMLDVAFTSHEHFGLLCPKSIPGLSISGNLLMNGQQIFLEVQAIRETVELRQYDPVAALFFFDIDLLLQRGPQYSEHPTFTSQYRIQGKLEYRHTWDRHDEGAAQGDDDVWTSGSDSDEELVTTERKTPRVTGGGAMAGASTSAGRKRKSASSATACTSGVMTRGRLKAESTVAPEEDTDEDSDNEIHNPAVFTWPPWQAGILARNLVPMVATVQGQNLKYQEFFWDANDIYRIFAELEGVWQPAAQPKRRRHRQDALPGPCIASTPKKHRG
CMV pp65 417-426 peptide, sequence (P06725 whole entry, looked up): as above

Row | Compound | pKd (HLA-A*0201) | other results
1 | CC[C@H](C)[C@H](NC(=O)[C@H](CCCCN)NC(=O)[C@H](CCCCN)NC(=O)[C@H](CS)NC(=O)[C@H](C)NC(=O)[C@H](CC(=O)O)NC(=O)[C@H](CO)NC(=O)[C@H](CC(C)C)NC(=O)[C@H](C)N)C(=O)O (H-ALSDACKKI-OH) | < 6.00 | –
2 | CC[C@H](C)[C@H](NC(=O)[C@H](CC(N)=O)NC(=O)[C@@H](NC(=O)[C@H](C)NC(=O)[C@H](CO)NC(=O)[C@H](CC(=O)O)NC(=O)[C@H](CO)NC(=O)[C@H](CC(C)C)NC(=O)[C@@H](N)Cc1ccc(O)cc1)[C@@H](C)CC)C(=O)O (H-YLSDSAINI-OH) | > 8.00 | –
3 | CC(C)C[C@H](NC(=O)[C@@H](N)Cc1ccc(O)cc1)C(=O)N[C@@H](CO)C(=O)N[C@H](C(=O)N[C@@H](CCC(=O)O)C(=O)N[C@@H](CCCNC(=N)N)C(=O)N[C@@H](CC(=O)O)C(=O)N[C@@H](Cc1c[nH]cn1)C(=O)N[C@H](C(=O)O)C(C)C)[C@@H](C)O (H-YLSTERDHV-OH) | 7.00 to 8.00 | –
4 | CMV pp65 495-503 peptide (from UniProt P06725 495-503) | – | % folding [1]: 95%
5 | CC[C@H](C)[C@H](NC(=O)[C@@H](NC(=O)[C@H](CC(=O)O)NC(=O)[C@H](Cc1ccc(O)cc1)NC(=O)[C@H](CC(=O)O)NC(=O)[C@H](CC(C)C)NC(=O)[C@@H](N)Cc1ccc(O)cc1)[C@@H](C)O)C(=O)N[C@@H](Cc1ccc(O)cc1)C(=O)N[C@H](C(=O)O)C(C)C (H-YLDYDTIYV-OH) | > 8.00 | –
6 | CMV pp65 417-426 peptide (from UniProt P06725 417-426) | – | % folding [2]: 100%
7 | EBV EBNA3b 657-666 peptide (from UniProt P03203 657-666) | – | % folding [3]: 100%
8 | CC(C)C[C@H](NC(=O)[C@@H](N)Cc1ccccc1)C(=O)N[C@@H](CCC(=O)O)C(=O)N[C@H](C(=O)N[C@@H](CC(=O)O)C(=O)N[C@@H](C)C(=O)NCC(=O)N[C@@H](CCCNC(=N)N)C(=O)N[C@H](C(=O)O)C(C)C)[C@@H](C)O (H-FLETDAGRV-OH) | 7.00 to 8.00 | –
